Patent US4413005A, “Carbamate derivatives and insecticidal, miticidal or nematocidal compositions containing the same” (priority 1981, dated 1983)

Legend:
[1] = test system: green rice leafhopper (Nephotettix cincticeps); assay: Mortality of female adults of green rice leafhopper on paddy rice (Test Example 2); assay type: in vivo; settings: 72 h
Experimental: An emulsion of specified concentration was prepared from a 50% wettable powder of the compound to be tested and applied to the leaves of paddy rice (one-month-old seedlings) planted in a pot to fully wet the leaves. After the emulsion had been dried, the pot was covered with a net cage, into which 10 female adults of green rice leafhopper (Nephotettix cincticeps) were released. The compound of each specified concentration was tested on two pots.

[2] = test system: tobacco cutworm (Spodoptera litura); assay: Mortality of third-instar larvae of tobacco cutworm on cabbage (Test Example 1); assay type: in vivo; settings: 72 h
Experimental: Ten third-instar larvae of tobacco cutworm (Spodoptera litura) were placed on a cabbage (one-month-old seedling) planted in a pot, and a 50% emulsion of the compound to be tested was diluted to a specified concentration and applied to the leaves of the plant to fully wet them. The test compound of each specified concentration was tested on two pots.

[3] = test system: house fly (Musca domestica); assay: Local application to house fly, LD50 by Probit method (Test Example 4); assay type: in vivo; settings: topical, 24 h
Experimental: The compound to be tested was dissolved in a predetermined amount of acetone. The solution was diluted to various concentrations and locally applied to house fly (Musca domestica).

[4] = Acute oral toxicity in male mice, LD50 by Litchfield-Wilcoxon method (Test Example 5); settings: mouse, in vivo, mortality on the seventh day
Experimental: Compounds of this invention were tested on male mice for acute toxicity by oral administration.

With CCOC(=O)CN(SN(C)C(=O)Oc1cccc2c1OC(C)(C)C2)c1ccc(OC)cc1 [Example 22] the mortality at 200 ppm [1] was 60%, the mortality at 400 ppm [1] was 80% and the mortality at 800 ppm [1] was 100%. The mortality at 500 ppm [2] was 65%, the mortality at 1000 ppm [2] was 85% and the mortality at 2000 ppm [2] was 100%. It also gave an LD50 [3] of 45.2 mg/kg and an LD50 at 168 h [4] of 88 mg/kg.
For CC(C)OC(=O)CN(CC(=O)OC(C)C)SN(C)C(=O)Oc1cccc2c1OC(C)(C)C2 [Example 4], the mortality at 200 ppm [1] was 40%, the mortality at 400 ppm [1] was 70% and the mortality at 800 ppm [1] was 100%. The mortality at 500 ppm [2] was 60%, the mortality at 1000 ppm [2] was 70% and the mortality at 2000 ppm [2] was 100%. It also gave an LD50 [3] of 28.9 mg/kg and an LD50 at 168 h [4] of 122 mg/kg.
For CCOC(=O)CCN(SN(C)C(=O)Oc1cccc2c1OC(C)(C)C2)C1CCCCC1 [Example 32, 2,3-Dihydro-2,2-dimethylbenzofuran-7-yl N-(N-cyclohexyl-N-ethoxycarbonylethylaminosulfenyl)-N-methylcarbamate], the mortality at 200 ppm [1] was 55%, the mortality at 400 ppm [1] was 75% and the mortality at 800 ppm [1] was 100%. It also gave a mortality at 500 ppm [2] of 65%, a mortality at 1000 ppm [2] of 80% and a mortality at 2000 ppm [2] of 100%. The LD50 [3] was 32.7 mg/kg and the LD50 at 168 h [4] was 107 mg/kg.
Work on CCCCCCN(CCC(=O)OCC)SN(C)C(=O)Oc1cccc2c1OC(C)(C)C2 [Example 31] yielded a mortality at 200 ppm [1] of 55%, a mortality at 400 ppm [1] of 75% and a mortality at 800 ppm [1] of 100%. The mortality at 500 ppm [2] was 60%, the mortality at 1000 ppm [2] was 80% and the mortality at 2000 ppm [2] was 100%. For the same compound, the LD50 [3] was 33.1 mg/kg and the LD50 at 168 h [4] was 135 mg/kg.
Compound CCOC(=O)CN(SN(C)C(=O)Oc1cccc2c1OC(C)(C)C2)C(=O)c1ccc(Cl)cc1 [Example 47] has a mortality at 200 ppm [1] of 60%, a mortality at 400 ppm [1] of 75% and a mortality at 800 ppm [1] of 95%. For the same compound, the mortality at 500 ppm [2] was 65%, the mortality at 1000 ppm [2] was 80% and the mortality at 2000 ppm [2] was 100%. For the same compound, the LD50 [3] was 57.8 mg/kg and the LD50 at 168 h [4] was 95 mg/kg.
In the case of CCOC(=O)CCN(SN(C)C(=O)Oc1cccc2c1OC(C)(C)C2)C(=O)OCC [Example 52], the mortality at 200 ppm [1] is reported as 65%, the mortality at 400 ppm [1] is reported as 85% and the mortality at 800 ppm [1] is reported as 100%. For the same compound, the mortality at 500 ppm [2] was 70%, the mortality at 1000 ppm [2] was 85% and the mortality at 2000 ppm [2] was 100%. The LD50 [3] was 54.3 mg/kg and the LD50 at 168 h [4] was 125 mg/kg.
Compound Cc1ccc(N(CC#N)SN(C)C(=O)Oc2cccc3c2OC(C)(C)C3)cc1 [Example 36] has a mortality at 200 ppm [1] of 60%, a mortality at 400 ppm [1] of 75% and a mortality at 800 ppm [1] of 95%. It also gave a mortality at 500 ppm [2] of 65%, a mortality at 1000 ppm [2] of 80% and a mortality at 2000 ppm [2] of 100%. For the same compound, the LD50 [3] was 59.3 mg/kg and the LD50 at 168 h [4] was 70 mg/kg.
With CCOC(=O)N(CCC#N)SN(C)C(=O)Oc1cccc2c1OC(C)(C)C2 [Example 51] the mortality at 200 ppm [1] was 65%, the mortality at 400 ppm [1] was 85% and the mortality at 800 ppm [1] was 100%. The mortality at 500 ppm [2] was 70%, the mortality at 1000 ppm [2] was 85% and the mortality at 2000 ppm [2] was 100%. The LD50 [3] was 45.3 mg/kg and the LD50 at 168 h [4] was 88 mg/kg.
With CCOC(=O)CCN(CC(C)C)SN(C)C(=O)Oc1cccc2c1OC(C)(C)C2 [Example 30] the mortality at 200 ppm [1] was 60%, the mortality at 400 ppm [1] was 80% and the mortality at 800 ppm [1] was 100%. For the same compound, the mortality at 500 ppm [2] was 65%, the mortality at 1000 ppm [2] was 85% and the mortality at 2000 ppm [2] was 100%. For the same compound, the LD50 [3] was 23.8 mg/kg and the LD50 at 168 h [4] was 133 mg/kg.
For CN(SN(CC(=O)OC1CCCCC1)CC(=O)OC1CCCCC1)C(=O)Oc1cccc2c1OC(C)(C)C2 [Example 5], the mortality at 200 ppm [1] was 45%, the mortality at 400 ppm [1] was 80% and the mortality at 800 ppm [1] was 100%. The mortality at 500 ppm [2] was 65%, the mortality at 1000 ppm [2] was 80% and the mortality at 2000 ppm [2] was 100%. The LD50 [3] was 75.6 mg/kg and the LD50 at 168 h [4] was 90 mg/kg.
CC(C)CN(CCC#N)SN(C)C(=O)Oc1cccc2c1OC(C)(C)C2 [Example 40] gave a mortality at 200 ppm [1] of 70%, a mortality at 400 ppm [1] of 85% and a mortality at 800 ppm [1] of 100%. For the same compound, the mortality at 500 ppm [2] was 75%, the mortality at 1000 ppm [2] was 85% and the mortality at 2000 ppm [2] was 100%. For the same compound, the LD50 [3] was 37.9 mg/kg and the LD50 at 168 h [4] was 103 mg/kg.
For CCCCCCCCN(CCC#N)SN(C)C(=O)Oc1cccc2c1OC(C)(C)C2 [Example 41], the mortality at 200 ppm [1] was 60%, the mortality at 400 ppm [1] was 75% and the mortality at 800 ppm [1] was 95%. It also gave a mortality at 500 ppm [2] of 65%, a mortality at 1000 ppm [2] of 80% and a mortality at 2000 ppm [2] of 100%. For the same compound, the LD50 [3] was 54.6 mg/kg and the LD50 at 168 h [4] was 105 mg/kg.
